# Values joined by “and” are separate entries in the source; they are usually repeats but may differ in a detail not shown here. Identical values can stand only once. Like-named read-outs stand apart in the source and are kept apart here.
# What was measured:
# [1] = Oral 500 mg; cited from earlier work
# [2] = human, in vivo, po, 500 mg
# [3] = clinical; conditions: human, in vivo, po, 500 mg
# [4] = Published cocaine pharmacokinetics in humans, IV bolus: parameters and PCT profile (Barnett et al. 1981)
# [5] = cited from earlier work; for Conc (plasma concentration): 200 mg intravenously, subject 68 kg; for Alpha / A: individual subjects W
# [6] = 200 mg IV, two compartment model
# [7] = IV bolus, Dose = 100 mg, X, Y, listed as Cocain
# [8] = IV bolus, Dose = 200 mg, Z, listed as Cocain
# [9] = IVBolus 200 mg, bi-exponential model (Table 6)
smiles,measurement,setting,value
CC[C@H]1OC(=O)[C@H](C)[C@@H](O[C@H]2C[C@@](C)(OC)[C@@H](O)[C@H](C)O2)[C@H](C)[C@@H](O[C@@H]2O[C@H](C)C[C@H](N(C)C)[C@H]2O)[C@](C)(O)C[C@@H](C)CN(C)[C@H](C)[C@@H](O)[C@]1(C)O [Azithromycin],"AUC, Maximum",[1],6380 ng·h/mL
same,"AUC, Mean Value",[1],4860 ng·h/mL
same,"AUC, Minimum",[1],3500 ng·h/mL
same,"CL, Mean Value",[1],664.84 mL/min
same,"K10, Maximum",[1],0.12 h⁻¹
same,"K10, Mean Value",[1],0.08 h⁻¹
same,"K10, Minimum",[1],0.05 h⁻¹
same,"K12, Maximum",[1],0.18 h⁻¹
same,"K12, Mean Value",[1],0.12 h⁻¹
same,"K12, Minimum",[1],0.07 h⁻¹
same,"K21, Maximum",[1],0.06 h⁻¹
same,"K21, Mean Value",[1],0.04 h⁻¹
same,"K21, Minimum",[1],0.03 h⁻¹
same,"Ke, Maximum",[1],0.02 h⁻¹
same,"Ke, Mean Value",[1],0.02 h⁻¹
same,"Ke, Minimum",[1],0.02 h⁻¹
same,"T1/2 beta, Mean Value",[1],55.46 h
same,"V1, Maximum",[1],1025.35 L
same,"V1, Mean Value",[1],586.83 L
same,"V1, Minimum",[1],341.94 L
same,"V2, Maximum",[1],3193.05 L
same,"V2, Mean Value",[1],1779.12 L
same,"V2, Minimum",[1],798.71 L
same,"Vd beta, Mean Value",[1],3219.51 L
same,"Vss, Maximum",[1],4218.4 L
same,"Vss, Mean Value",[1],2347.95 L
same,"Vss, Minimum",[1],1018.78 L
same,"CL, Selected Parameter Value",[2],280.35 mL/min
same,"Vd beta, Selected Parameter Value",[2],5475.92 L
same,"Vss, Selected Parameter Value",[2],4218.4 L
same,AUC,[3],6380 ng·h/mL
same,half-life,[3],76.2 h
COC(=O)[C@H]1[C@@H](OC(=O)c2ccccc2)C[C@@H]2CC[C@H]1N2C [Cocaine],"Alpha, Selected Value","[4]; maximum over all subjects and doses 100, 200 mg (Rule 7)",0.0532 min⁻¹
same,"Beta, Selected Value",[4]; maximum over all subjects and doses (Rule 7),0.00842 min⁻¹
same,"A, Published parameter value",[5]; [6],2.482 µg/mL
same,"Alpha, Published parameter value",[5]; [6],3.192 h⁻¹
same,"B, Published parameter value",[5]; [6],1.997 µg/mL
same,"Beta, Published parameter value",[5]; [6],0.505 h⁻¹
same,Conc (plasma concentration),[5]; Time 0.08333333 hr,3868 ng/mL
same,Conc (plasma concentration),[5]; Time 0.33333333 hr,2476 ng/mL
same,Conc (plasma concentration),[5]; Time 0.65 hr,2031 ng/mL
same,Conc (plasma concentration),[5]; Time 1 hr,1222 ng/mL
same,Conc (plasma concentration),[5]; Time 2.13333333 hr,696 ng/mL
same,Conc (plasma concentration),[5]; Time 3.2 hr,453 ng/mL
same,Conc (plasma concentration),[5]; Time 4.16666667 hr,219 ng/mL
same,Conc (plasma concentration),[5]; Time 5.15 hr,145 ng/mL
same,Conc (plasma concentration),[5]; Time 6.15 hr,94 ng/mL
same,Alpha,"[5]; IV bolus, Dose = 100 mg, X, Y",0.0135 min⁻¹ and 0.0172 min⁻¹ and 0.0147 min⁻¹
same,A,[5]; [7],860 ng/mL and 558 ng/mL and 1139 ng/mL
same,Alpha,[5]; [7],0.0135 min⁻¹ and 0.0172 min⁻¹ and 0.0147 min⁻¹
same,B,"[5]; IV bolus, Dose = 200 mg, Sub-W",1997 ng/mL
same,Beta,"[5]; IV bolus, Dose = 200 mg, Sub-W",0.00842 min⁻¹
same,Alpha,"[5]; IV bolus, Dose = 200 mg, Z",0.0532 min⁻¹ and 0.00879 min⁻¹
same,A,[5]; [8],2482 ng/mL and 1432 ng/mL
same,Alpha,[5]; [8],0.0532 min⁻¹ and 0.00879 min⁻¹
same,"A, Value",[5]; [9],2482 ng/mL
same,"Alpha, Value",[5]; [9],0.05 min⁻¹
same,"B, Value",[5]; [9],1997 ng/mL
same,Cmax,[5]; IVBolus 200 mg,(Cmax = 3868) ng/ml
